# What was measured:
# Format in all cases: cell-based, human
# [1] = tested on: NKG2A−/NKG2C+ NK cells; assay: NK cell activation markers in NKG2A-/NKG2C+ NK cells incubated with peptide and K562 expressing HLA-E (activation); conditions: NKG2A-/NKG2C+ NK cells, K562/HLA-E
# Experimental: (§1) A human immortalized myelogenous leukemia cell line (K562), which expresses HLA-E was incubated with novel peptides (Table 1) derived from the human proteome or human cytomegalovirus proteome. […] Controls assessments were also performed using NKG2A−/NKG2C− cells (Tables 10-13). Inhibition was indicated by a decrease in percent cells positive for cell surface markers, while activation was indicated by an increase in percent cells positive for cell surface markers.
# [2] = tested on: NKG2A−/NKG2C− NK cells; assay: NK cell activation markers in control NKG2A-/NKG2C- NK cells incubated with peptide and K562 expressing HLA-E
# Experimental: as §1
# [3] = tested on: NKG2A+/NKG2C− NK cells; assay: NK cell activation markers in NKG2A+/NKG2C- NK cells incubated with peptide and K562 expressing HLA-E (inhibition); conditions: NKG2A+/NKG2C- NK cells, K562/HLA-E
# Experimental: as §1
sequence,measurement,setting,value
"VMAPQSLLL [VMAPQSLLL (PQS), negative control peptide, reference compound]",percentage of CCL3+ NK cells,[1]; Trial 1,47%
same,percentage of CD107+ NK cells,[1]; Trial 1,25.2%
same,percentage of IFNG+ NK cells,[1]; Trial 1,10.6%
same,percentage of TNF+ NK cells,[1]; Trial 1,4.96%
same,percentage of CCL3+ NK cells,[1]; Trial 2,55.3%
same,percentage of CD107+ NK cells,[1]; Trial 2,32.8%
same,percentage of IFNG+ NK cells,[1]; Trial 2,12.7%
same,percentage of TNF+ NK cells,[1]; Trial 2,9.31%
same,percentage of CCL3+ NK cells,[1]; Trial 3,69.4%
same,percentage of CD107+ NK cells,[1]; Trial 3,58.6%
same,percentage of IFNG+ NK cells,[1]; Trial 3,40.7%
same,percentage of TNF+ NK cells,[1]; Trial 3,31.2%
same,percentage of CCL3+ NK cells,[1]; Trial 4,58.6%
same,percentage of CD107+ NK cells,[1]; Trial 4,53.6%
same,percentage of IFNG+ NK cells,[1]; Trial 4,35.6%
same,percentage of TNF+ NK cells,[1]; Trial 4,25.7%
same,percentage of CCL3+ NK cells,[1]; Trial 5,55.4%
same,percentage of CD107+ NK cells,[1]; Trial 5,43%
same,percentage of IFNG+ NK cells,[1]; Trial 5,19.9%
same,percentage of TNF+ NK cells,[1]; Trial 5,14.7%
same,percentage of CCL3+ NK cells,[1]; Trial 6,32.7%
same,percentage of CD107+ NK cells,[1]; Trial 6,22.3%
same,percentage of IFNG+ NK cells,[1]; Trial 6,10.3%
same,percentage of TNF+ NK cells,[1]; Trial 6,5.08%
same,percentage CCL3+ NK cells,[2]; Trial 1,35.1%
same,percentage CD107+ NK cells,[2]; Trial 1,24.1%
same,percentage TNF+ NK cells,[2]; Trial 1,3.46%
same,percentage of IFNG+ NK cells,[2]; Trial 1,14%
same,percentage CCL3+ NK cells,[2]; Trial 2,57.7%
same,percentage CD107+ NK cells,[2]; Trial 2,37.9%
same,percentage TNF+ NK cells,[2]; Trial 2,9.07%
same,percentage of IFNG+ NK cells,[2]; Trial 2,27.9%
same,percentage CCL3+ NK cells,[2]; Trial 3,59.4%
same,percentage CD107+ NK cells,[2]; Trial 3,53%
same,percentage TNF+ NK cells,[2]; Trial 3,22.6%
same,percentage of IFNG+ NK cells,[2]; Trial 3,48.3%
same,percentage CCL3+ NK cells,[2]; Trial 4,35%
same,percentage CD107+ NK cells,[2]; Trial 4,28%
same,percentage TNF+ NK cells,[2]; Trial 4,8.23%
same,percentage of IFNG+ NK cells,[2]; Trial 4,19%
same,percentage CCL3+ NK cells,[2]; Trial 5,34%
same,percentage CD107+ NK cells,[2]; Trial 5,24.4%
same,percentage TNF+ NK cells,[2]; Trial 5,8.67%
same,percentage of IFNG+ NK cells,[2]; Trial 5,18.6%
same,percentage CCL3+ NK cells,[2]; Trial 6,22.4%
same,percentage CD107+ NK cells,[2]; Trial 6,19.5%
same,percentage TNF+ NK cells,[2]; Trial 6,4.08%
same,percentage of IFNG+ NK cells,[2]; Trial 6,10%
same,percentage of CCL3+ NK cells,[3]; Trial 1,49.8%
same,percentage of CD107a+ NK cells,[3]; Trial 1,29.1%
same,percentage of IFNG+ NK cells,[3]; Trial 1,10.1%
same,percentage of TNF+ NK cells,[3]; Trial 1,2.95%
same,percentage of CCL3+ NK cells,[3]; Trial 2,70.6%
same,percentage of CD107a+ NK cells,[3]; Trial 2,47.4%
same,percentage of IFNG+ NK cells,[3]; Trial 2,27.3%
same,percentage of TNF+ NK cells,[3]; Trial 2,13.3%
same,percentage of CCL3+ NK cells,[3]; Trial 3,58.2%
same,percentage of CD107a+ NK cells,[3]; Trial 3,46.5%
same,percentage of IFNG+ NK cells,[3]; Trial 3,35.1%
same,percentage of TNF+ NK cells,[3]; Trial 3,18.8%
same,percentage of CCL3+ NK cells,[3]; Trial 4,50.7%
same,percentage of CD107a+ NK cells,[3]; Trial 4,40.7%
same,percentage of IFNG+ NK cells,[3]; Trial 4,23.1%
same,percentage of TNF+ NK cells,[3]; Trial 4,11.6%
same,percentage of CCL3+ NK cells,[3]; Trial 5,47.7%
same,percentage of CD107a+ NK cells,[3]; Trial 5,30.1%
same,percentage of IFNG+ NK cells,[3]; Trial 5,14.1%
same,percentage of TNF+ NK cells,[3]; Trial 5,6.1%
same,percentage of CCL3+ NK cells,[3]; Trial 6,31.3%
same,percentage of CD107a+ NK cells,[3]; Trial 6,24.4%
same,percentage of IFNG+ NK cells,[3]; Trial 6,8.37%
same,percentage of TNF+ NK cells,[3]; Trial 6,4.14%
"VMAPRTLIL [VMAPRTLIL (LIL), positive control peptide, reference compound]",percentage of CCL3+ NK cells,[1]; Trial 1,76.7%
same,percentage of CD107+ NK cells,[1]; Trial 1,74.1%
same,percentage of IFNG+ NK cells,[1]; Trial 1,64.1%
same,percentage of TNF+ NK cells,[1]; Trial 1,48.5%
same,percentage of CCL3+ NK cells,[1]; Trial 2,92%
same,percentage of CD107+ NK cells,[1]; Trial 2,87%
same,percentage of IFNG+ NK cells,[1]; Trial 2,79.8%
same,percentage of TNF+ NK cells,[1]; Trial 2,62.5%
same,percentage of CCL3+ NK cells,[1]; Trial 3,85.4%
same,percentage of CD107+ NK cells,[1]; Trial 3,85.3%
same,percentage of IFNG+ NK cells,[1]; Trial 3,78.1%
same,percentage of TNF+ NK cells,[1]; Trial 3,61.4%
same,percentage of CCL3+ NK cells,[1]; Trial 4,69%
same,percentage of CD107+ NK cells,[1]; Trial 4,73.4%
same,percentage of IFNG+ NK cells,[1]; Trial 4,59.7%
same,percentage of TNF+ NK cells,[1]; Trial 4,50.4%
same,percentage of CCL3+ NK cells,[1]; Trial 5,79.6%
same,percentage of CD107+ NK cells,[1]; Trial 5,79.9%
same,percentage of IFNG+ NK cells,[1]; Trial 5,72.5%
same,percentage of TNF+ NK cells,[1]; Trial 5,66.3%
same,percentage of CCL3+ NK cells,[1]; Trial 6,56.6%
same,percentage of CD107+ NK cells,[1]; Trial 6,63.2%
same,percentage of IFNG+ NK cells,[1]; Trial 6,45.9%
same,percentage of TNF+ NK cells,[1]; Trial 6,35.5%
same,percentage CCL3+ NK cells,[2]; Trial 1,31.4%
same,percentage CD107+ NK cells,[2]; Trial 1,24.4%
same,percentage TNF+ NK cells,[2]; Trial 1,3.46%
same,percentage of IFNG+ NK cells,[2]; Trial 1,15.5%
same,percentage CCL3+ NK cells,[2]; Trial 2,54%
same,percentage CD107+ NK cells,[2]; Trial 2,33.4%
same,percentage TNF+ NK cells,[2]; Trial 2,7.41%
same,percentage of IFNG+ NK cells,[2]; Trial 2,22.8%
same,percentage CCL3+ NK cells,[2]; Trial 3,46.1%
same,percentage CD107+ NK cells,[2]; Trial 3,43.2%
same,percentage TNF+ NK cells,[2]; Trial 3,13.6%
same,percentage of IFNG+ NK cells,[2]; Trial 3,36.7%
same,percentage CCL3+ NK cells,[2]; Trial 4,30.8%
same,percentage CD107+ NK cells,[2]; Trial 4,26.4%
same,percentage TNF+ NK cells,[2]; Trial 4,8.21%
same,percentage of IFNG+ NK cells,[2]; Trial 4,18.7%
same,percentage CCL3+ NK cells,[2]; Trial 5,23.8%
same,percentage CD107+ NK cells,[2]; Trial 5,17.9%
same,percentage TNF+ NK cells,[2]; Trial 5,4.32%
same,percentage of IFNG+ NK cells,[2]; Trial 5,12.1%
same,percentage CCL3+ NK cells,[2]; Trial 6,21.4%
same,percentage CD107+ NK cells,[2]; Trial 6,19%
same,percentage TNF+ NK cells,[2]; Trial 6,3.8%
same,percentage of IFNG+ NK cells,[2]; Trial 6,9.39%
same,percentage of CCL3+ NK cells,[3]; Trial 1,1.59%
same,percentage of CD107a+ NK cells,[3]; Trial 1,0.35%
same,percentage of IFNG+ NK cells,[3]; Trial 1,0%
same,percentage of TNF+ NK cells,[3]; Trial 1,0%
same,percentage of CCL3+ NK cells,[3]; Trial 2,14.4%
same,percentage of CD107a+ NK cells,[3]; Trial 2,2.73%
same,percentage of IFNG+ NK cells,[3]; Trial 2,0.59%
same,percentage of TNF+ NK cells,[3]; Trial 2,0.39%
same,percentage of CCL3+ NK cells,[3]; Trial 3,4.32%
same,percentage of CD107a+ NK cells,[3]; Trial 3,1.95%
same,percentage of IFNG+ NK cells,[3]; Trial 3,0.87%
same,percentage of TNF+ NK cells,[3]; Trial 3,0.46%
same,percentage of CCL3+ NK cells,[3]; Trial 4,0.75%
same,percentage of CD107a+ NK cells,[3]; Trial 4,0.77%
same,percentage of IFNG+ NK cells,[3]; Trial 4,0.08%
same,percentage of TNF+ NK cells,[3]; Trial 4,0.08%
same,percentage of CCL3+ NK cells,[3]; Trial 5,1.56%
same,percentage of CD107a+ NK cells,[3]; Trial 5,0.56%
same,percentage of IFNG+ NK cells,[3]; Trial 5,0.06%
same,percentage of TNF+ NK cells,[3]; Trial 5,0.06%
same,percentage of CCL3+ NK cells,[3]; Trial 6,0.92%
same,percentage of CD107a+ NK cells,[3]; Trial 6,0.92%
same,percentage of IFNG+ NK cells,[3]; Trial 6,0.05%
same,percentage of TNF+ NK cells,[3]; Trial 6,0.05%

# Source: patent US20240092835A1, “NOVEL PEPTIDES CAPABLE OF ALTERING NK CELL ACTIVITY” (Massachusetts Institute of Technology, priority 2022, published 2024)
